From PMC8388771, “Cationic Peptidomimetic Amphiphiles Having a N-Aryl- or N-Naphthyl-1,2,3-Triazole Core Structure Targeting Clostridioides (Clostridium) difficile: Synthesis, Antibacterial Evaluation, and an In Vivo C. difficile Infection Model” (Antibiotics, 2021)
Values after ≈ are worked out from the molar mass of the structure shown. Read-outs that look alike come from different tables or passages of the source.

Key:
C. difficile ATCC 700057 = test: Primary MIC assay, C. difficile ATCC 700057; assay type: cell-based, Clostridioides difficile; settings: Clostridioides difficile
Experimental: (§1) The N-arytriazole and N-naphthyltriazole peptidomimetics were subjected to antimicrobial screening. […] Vancomycin, colistin, fluconazole, and tamoxifen were used as positive controls (see Table 1 for details).
(§2) Primary screening (Gram-positive bacteria). Primary MIC assays were performed as described by the Clinical and Laboratory Standards Institute for aerobic and anaerobic bacteria. MIC values for vancomycin were within acceptable QC ranges.

C. difficile 132 (RT027) = test: Primary MIC assay, C. difficile 132 (RT027); assay type: cell-based, Clostridioides difficile; settings: Clostridioides difficile, read-out: MIC C. difficile 132 (RT027)
Experimental: as §1, §2

S. aureus ATCC 29213 = test: Primary MIC assay, S. aureus ATCC 29213; assay type: cell-based; settings: Staphylococcus aureus
Experimental: as §1, §2

S. aureus NCTC 10442 = test: Primary MIC assay, S. aureus NCTC 10442 (MRSA); assay type: cell-based; settings: Staphylococcus aureus
Experimental: as §1, §2

E. faecalis ATCC 29212 = test: Primary MIC assay, E. faecalis ATCC 29212; assay type: cell-based, Enterococcus faecalis; settings: Enterococcus faecalis
Experimental: as §1, §2

S. pneumoniae ATCC 49619 = test: Primary MIC assay, S. pneumoniae ATCC 49619; assay type: cell-based, Streptococcus pneumoniae; settings: Streptococcus pneumoniae
Experimental: as §1, §2

E. coli ATCC 25922 [1] = test: Primary MIC assay, E. coli ATCC 25922; assay type: cell-based; settings: Escherichia coli
[2] = Cytotoxicity (CC50) assay by CO-ADD; assay type: cell-based, human; settings: human, HEK293 cells (ATCC CRL-1573); Table 1; cytotoxicity on HEK293 cells, tested at ≤32 µg/mL
From the text: as §1
(§3) Secondary screening (MRSA and Gram-negative bacteria) and cytotoxicity assay–performed by the Community for Open Antimicrobial Drug Discovery (CO-ADD). Samples were provided to CO-ADD [29] for antimicrobial screening by whole cell growth inhibition assays.
Cytotoxicity Assay. These were performed as described previously.

human erythrocytes = test: Hemolysis assay, HC50 determination; assay type: cell-based
Experimental: Hemolysis assay (human erythrocytes)–HC50 determination. These were performed as described previously.

S. aureus ATCC 43300 = test: CO-ADD MIC assay, S. aureus ATCC 43300 (MRSA); assay type: cell-based; settings: Staphylococcus aureus, read-out: MIC S. aureus ATCC 43300
From the text: as §1, §3
(§4) Bacterial Inhibition–MIC Assay. These were performed as described previously.

P. aeruginosa ATCC 27853 = test: CO-ADD MIC assay, P. aeruginosa ATCC 27853; assay type: cell-based; settings: Pseudomonas aeruginosa, ATCC27853, Table S1
From the text: as §1, §3, §4

[3] = system: K. pneumoniae ATCC 700603; test: CO-ADD MIC assay, K. pneumoniae ATCC 700603; assay type: cell-based; settings: Klebsiella pneumoniae, ATCC700603, Table S1, multi-drug resistant
From the text: as §1, §3, §4

A. baumannii ATCC 19606 = test: CO-ADD MIC assay, A. baumannii ATCC 19606; assay type: cell-based; settings: Acinetobacter baumannii, ATCC19606, Table S1
From the text: as §1, §3, §4

E. coli ATCC 25922 [4] = test: CO-ADD MIC assay, E. coli ATCC 25922; assay type: cell-based; settings: Escherichia coli, ATCC25922, Table S1
From the text: as §1, §3, §4

C. albicans ATCC 90028 = test: CO-ADD MIC assay, C. albicans ATCC 90028; assay type: cell-based; settings: Candida albicans, ATCC90028, Table S1
From the text: as §1, §3

[5] = system: Cryptococcus neoformans var. grubii ATCC 208821; test: CO-ADD MIC assay, C. neoformans var. grubii ATCC 208821; assay type: cell-based; settings: Cryptococcus neoformans, ATCC208821, Table S1
From the text: as §1, §3

[6] = ATCC700057, Table 1, read-out: MIC C. difficile ATCC 700057
[7] = ATCC29213, Table 1, read-out: MIC S. aureus ATCC 29213
[8] = Table 1, MRSA, read-out: MIC S. aureus NCTC 10442
[9] = ATCC29212, Table 1, read-out: MIC E. faecalis ATCC 29212
[10] = ATCC49619, Table 1, read-out: MIC S. pneumoniae ATCC 49619
[11] = ATCC25922, Table 1, read-out: MIC E. coli ATCC 25922
[12] = Table 1, lysis of human erythrocytes
[13] = Table S1, footnote says lysis of sheep erythrocytes

| Structure (SMILES) | MIC (C. difficile ATCC 700057; [6]) [mg/L] | MIC (C. difficile 132 (RT027); Table 1) [mg/L] | MIC (S. aureus ATCC 29213; [7]) [mg/L] | MIC (S. aureus NCTC 10442; [8]) [mg/L] | MIC (E. faecalis ATCC 29212; [9]) [mg/L] | MIC (S. pneumoniae ATCC 49619; [10]) [mg/L] | MIC (E. coli ATCC 25922 [1]; [11]) [mg/L] | MIC (S. aureus ATCC 43300; Table S1, MRSA, CO-ADD) [mg/L] | MIC (P. aeruginosa ATCC 27853) [mg/L] | MIC [3] [mg/L] | MIC (A. baumannii ATCC 19606) [mg/L] | MIC (E. coli ATCC 25922 [4]) [mg/L] | MIC (C. albicans ATCC 90028) [mg/L] | MIC [5] [mg/L] | CC50 [2] [mg/L] | HC50 (human erythrocytes; [12]) [µg/mL] | HC50 (human erythrocytes; [13]) [µg/mL] | also measured |
| --- | --- | --- | --- | --- | --- | --- | --- | --- | --- | --- | --- | --- | --- | --- | --- | --- | --- | --- |
| CC(C)CCc1cn(-c2ccccc2OCC(=O)N[C@H](CCCNC(=N)N)Cn2cc(C3CCCCC3)nn2)nn1 [Compound 10] | 32 (≈ 56.7 µM) | 64 (≈ 113 µM) | 32 (≈ 56.7 µM) | 32 (≈ 56.7 µM) | 32 (≈ 56.7 µM) | 16 (≈ 28.3 µM) | 128 (≈ 227 µM) | 32 (≈ 56.7 µM) | > 32 | > 32 | > 32 | > 32 | > 32 | 32 (≈ 56.7 µM) | > 32 | >32 | > 32 |  |
| CN[C@H](CC(C)C)C(=O)N[C@H]1C(=O)N[C@@H](CC(N)=O)C(=O)N[C@H]2C(=O)N[C@H]3C(=O)N[C@H](C(=O)N[C@H](C(=O)O)c4cc(O)cc(O)c4-c4cc3ccc4O)[C@H](O)c3ccc(c(Cl)c3)Oc3cc2cc(c3O[C@@H]2O[C@H](CO)[C@@H](O)[C@H](O)[C@H]2O[C@H]2C[C@](C)(N)[C@H](O)[C@H](C)O2)Oc2ccc(cc2Cl)[C@H]1O [vanc, vancomycin, reference compound] |  |  |  |  |  |  |  |  |  |  |  |  |  |  |  |  |  | MIC (C. difficile ATCC 700057; ATCC700057, read-out: MIC C. difficile ATCC 700057): 0.5 mg/L (≈ 0.345 µM); MIC (C. difficile 132 (RT027)): 0.5 mg/L (≈ 0.345 µM); MIC (S. aureus ATCC 29213; ATCC29213, read-out: MIC S. aureus ATCC 29213): 1 mg/L (≈ 0.69 µM); MIC (S. aureus NCTC 10442; MRSA / NCTC 10442 / NCTC 104422, read-out: MIC S. aureus NCTC 104422): 1 mg/L (≈ 0.69 µM); MIC (S. aureus NCTC 10442; read-out: MIC S. aureus NCTC 10442): 1 mg/L (≈ 0.69 µM); MIC (E. faecalis ATCC 29212; ATCC29212, read-out: MIC E. faecalis ATCC 29212): 4 mg/L (≈ 2.76 µM); MIC (S. pneumoniae ATCC 49619; ATCC49619, read-out: MIC S. pneumoniae ATCC 49619): 1 mg/L (≈ 0.69 µM); MIC (E. coli ATCC 25922 [1]; ATCC25922, read-out: MIC E. coli ATCC 25922): > 16 mg/L; MIC (S. aureus ATCC 43300): 1 mg/L (≈ 0.69 µM) |
| CC(C)CCc1cnnn1-c1ccccc1OCC(=O)N[C@H](CCCNC(=N)N)Cn1cc(CC2CCCCC2)nn1.Cl [Compound 15] | 64 | 64 | 16 | 16 | 16 | 16 | 128 | 32 | > 32 | > 32 | > 32 | > 32 | > 32 | 32 | > 32 | >32 | > 32 |  |

Continued, in another order:

| MIC (C. difficile ATCC 700057; [6]) [mg/L] | MIC (C. difficile 132 (RT027); Table 1) [mg/L] | MIC (S. aureus ATCC 29213; [7]) [mg/L] | MIC (S. aureus NCTC 10442; [8]) [mg/L] | MIC (E. faecalis ATCC 29212; [9]) [mg/L] | MIC (S. pneumoniae ATCC 49619; [10]) [mg/L] | MIC (E. coli ATCC 25922 [1]; [11]) [mg/L] | MIC (S. aureus ATCC 43300; Table S1, MRSA, CO-ADD) [mg/L] | MIC (P. aeruginosa ATCC 27853) [mg/L] | MIC [3] [mg/L] | MIC (A. baumannii ATCC 19606) [mg/L] | MIC (E. coli ATCC 25922 [4]) [mg/L] | MIC (C. albicans ATCC 90028) [mg/L] | MIC [5] [mg/L] | Structure (SMILES) | CC50 [2] [mg/L] | HC50 (human erythrocytes; [12]) [µg/mL] | HC50 (human erythrocytes; [13]) [µg/mL] | also measured |
| --- | --- | --- | --- | --- | --- | --- | --- | --- | --- | --- | --- | --- | --- | --- | --- | --- | --- | --- |
| 32 | 32 | 4 | 4 | 8 | 8 | 32 | 4 | > 32 | > 32 | > 32 | 32 | 16 | 32 | CC(C)CCc1cn(-c2c(OCC(=O)N[C@H](CCCNC(=N)N)Cn3cc(CC4CCCCC4)nn3)ccc3ccccc23)nn1.Cl [Compound 22] | > 32 | >32 | > 32 |  |
| 128 | 128 | 16 | 16 | 64 | 4 | 128 | 16 | 32 | > 32 | > 32 | 32 | > 32 |  | CC(C)CCc1cnnn1-c1c(OCC(=O)N[C@H](CCCCN)C(=O)N[C@H](CCCNC(=N)N)Cn2cc(Cc3ccccc3)nn2)ccc2ccccc12.Cl.Cl [Compound 45] | > 32 | >32 | > 32 |  |
| 64 (≈ 92.4 µM) | 64 (≈ 92.4 µM) | 16 (≈ 23.1 µM) | 32 (≈ 46.2 µM) | 16 (≈ 23.1 µM) | 8 (≈ 11.5 µM) | 64 (≈ 92.4 µM) | 16 (≈ 23.1 µM) | > 32 | > 32 | > 32 | > 32 | 16 (≈ 23.1 µM) | 16 (≈ 23.1 µM) | CC(C)CCc1cnnn1-c1ccccc1OCC(=O)N[C@H](CCCCN)C(=O)N[C@H](CCCNC(=N)N)Cn1cc(C2CCCCC2)nn1 [Compound 37] | > 32 | >32 | > 32 |  |
